Patent US20240000946A1, “CARBONIC ANHYDRASE INHIBITORS SYNTHESIZED ON INTERCONNECTING LINKER CHAINS” (VILNIUS UNIVERSITY, priority 2020, published 2024)

Tests used:
human recombinant CA IV = target: T1, human recombinant CA IV (Homo sapiens, UniProt P22748); experiment: Fluorescent thermal shift assay (FTSA), CA IV; type: binding; conditions: 37° C., pH 7.0
T1 construct: recombinant human carbonic anhydrase catalytic domains using the fluorescent thermal shift assay; made in house
Description: (§1) The protein solution in the absence and presence of various compound concentrations was heated from 25 to 99° C. (heating rate 1° C./min). The melting temperature Tm shift was determined by following the fluorescence of 8-anilino-1-naphthalene sulfonate (ANS). The samples consisted of 5 μM protein (except 10 μM for CA IV), different concentrations of compound (usually 0-200 μM), 50 μM ANS and 50 mM sodium phosphate buffer (at pH 7.0) containing 100 mM sodium chloride and 2% (v/v) of DMSO. Compound binding constant was obtained from protein Tm as a function of the added ligand concentration. Data analysis was performed, and the curves were fit so that the binding constant is determined for 37° C.

human recombinant CA VB = target: T2, human recombinant CA VB (Homo sapiens, UniProt Q9Y2D0); experiment: Fluorescent thermal shift assay (FTSA), CA VB; type: binding; conditions: 37° C., pH 7.0
T2 construct: recombinant human carbonic anhydrase catalytic domains using the fluorescent thermal shift assay; made in house
Description: as §1

human recombinant CA II = target: T3, human recombinant CA II (Homo sapiens, UniProt P00918); experiment: Fluorescent thermal shift assay (FTSA), CA II; type: binding; conditions: 37° C., pH 7.0
T3 construct: recombinant human carbonic anhydrase catalytic domains using the fluorescent thermal shift assay; made in house
Description: as §1

[1] = target: T4, human recombinant CA XIII (Homo sapiens, UniProt Q8N1Q1); experiment: Fluorescent thermal shift assay (FTSA), CA XIII; type: binding; conditions: 37° C., pH 7.0
T4 construct: recombinant human carbonic anhydrase catalytic domains using the fluorescent thermal shift assay; made in house
Description: as §1

human recombinant CA IX = target: T5, human recombinant CA IX (Homo sapiens, UniProt Q16790); experiment: Fluorescent thermal shift assay (FTSA), CA IX; type: binding; conditions: 37° C., pH 7.0
T5 construct: recombinant human carbonic anhydrase catalytic domains using the fluorescent thermal shift assay; made in house
Description: as §1

human recombinant CA VA = target: T6, human recombinant CA VA (Homo sapiens, UniProt P35218); experiment: Fluorescent thermal shift assay (FTSA), CA VA; type: binding; conditions: 37° C., pH 7.0
T6 construct: recombinant human carbonic anhydrase catalytic domains using the fluorescent thermal shift assay; made in house
Description: as §1

human recombinant CA XII = target: T7, human recombinant CA XII (Homo sapiens, UniProt O43570); experiment: Fluorescent thermal shift assay (FTSA), CA XII; type: binding; conditions: 37° C., pH 7.0
T7 construct: recombinant human carbonic anhydrase catalytic domains using the fluorescent thermal shift assay; made in house
Description: as §1

human recombinant CA XIV = target: T8, human recombinant CA XIV (Homo sapiens, UniProt Q9ULX7); experiment: Fluorescent thermal shift assay (FTSA), CA XIV; type: binding; conditions: 37° C., pH 7.0
T8 construct: recombinant human carbonic anhydrase catalytic domains using the fluorescent thermal shift assay; made in house
Description: as §1

human recombinant CA VII = target: T9, human recombinant CA VII (Homo sapiens, UniProt P43166); experiment: Fluorescent thermal shift assay (FTSA), CA VII; type: binding; conditions: 37° C., pH 7.0
T9 construct: recombinant human carbonic anhydrase catalytic domains using the fluorescent thermal shift assay; made in house
Description: as §1

human recombinant CA III = target: T10, human recombinant CA III (Homo sapiens, UniProt P07451); experiment: Fluorescent thermal shift assay (FTSA), CA III; type: binding; conditions: 37° C., pH 7.0
T10 construct: recombinant human carbonic anhydrase catalytic domains using the fluorescent thermal shift assay; made in house
Description: as §1

human recombinant CA VI = target: T11, human recombinant CA VI (Homo sapiens, UniProt P23280); experiment: Fluorescent thermal shift assay (FTSA), CA VI; type: binding; conditions: 37° C., pH 7.0
T11 construct: recombinant human carbonic anhydrase catalytic domains using the fluorescent thermal shift assay; made in house
Description: as §1

human recombinant CA I = target: T12, human recombinant CA I (Homo sapiens, UniProt P00915); experiment: Fluorescent thermal shift assay (FTSA), CA I; type: binding; conditions: 37° C., pH 7.0
T12 construct: recombinant human carbonic anhydrase catalytic domains using the fluorescent thermal shift assay; made in house
Description: as §1

carbonic anhydrase IX = target: T13, carbonic anhydrase IX (Homo sapiens, UniProt Q16790); experiment: Inhibition of CA enzymatic (CO2 hydratase) activity; type: biochemical
T13 construct: made in house
Description: The inhibition of hydratase activity of carbonic anhydrase I, II, and IX was performed using Applied Photophysics SX.18 MV-R instrument at 24° C. Theaturated substrate solution was prepared by bubbling carbon dioxide gas into Milly-Q water for 1 hour at room temperature. Phenol red was used as a pH indicator to follow the absorbance (A-557 nm) while CA acidified the medium. […] Raw curves were fitted using a single exponential model, and the dissociation constants were determined using the Morrison equation: […]
Where [CA] is a total added concentration of active CA, [I]—total added inhibitor concentration, and Kd is inhibitor binding affinity.

HeLa cancer cell culture = experiment: Acidification of extracellular medium by hypoxic HeLa cell culture; type: cell-based, human; conditions: 1 μM compound
Description: FIG. 6. HeLa cancer cell culture grown for 48 hours under hypoxic (1% O2) conditions caused acidification of extracellular medium as visualized by pH drop from initial pH 7.74 (shown as a dashed bold line) to pH 6.35.

T4 sequence (Q8N1Q1 4-261 limits assumed): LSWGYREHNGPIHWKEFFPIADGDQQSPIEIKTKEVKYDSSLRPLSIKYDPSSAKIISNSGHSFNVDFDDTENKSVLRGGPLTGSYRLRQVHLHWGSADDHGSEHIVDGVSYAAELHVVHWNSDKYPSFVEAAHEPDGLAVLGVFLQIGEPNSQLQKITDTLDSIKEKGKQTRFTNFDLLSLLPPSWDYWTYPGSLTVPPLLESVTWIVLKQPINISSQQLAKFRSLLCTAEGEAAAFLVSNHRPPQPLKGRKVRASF
T1 sequence (P22748 21-285 limits assumed): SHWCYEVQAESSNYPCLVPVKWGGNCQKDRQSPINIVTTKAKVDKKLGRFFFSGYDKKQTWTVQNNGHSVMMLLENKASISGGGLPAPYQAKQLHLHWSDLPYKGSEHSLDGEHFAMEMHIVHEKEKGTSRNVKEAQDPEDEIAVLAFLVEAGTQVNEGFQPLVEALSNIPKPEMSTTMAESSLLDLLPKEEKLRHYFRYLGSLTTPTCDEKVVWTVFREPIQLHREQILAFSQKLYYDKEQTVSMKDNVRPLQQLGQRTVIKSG
T7 sequence (O43570 30-289 limits assumed): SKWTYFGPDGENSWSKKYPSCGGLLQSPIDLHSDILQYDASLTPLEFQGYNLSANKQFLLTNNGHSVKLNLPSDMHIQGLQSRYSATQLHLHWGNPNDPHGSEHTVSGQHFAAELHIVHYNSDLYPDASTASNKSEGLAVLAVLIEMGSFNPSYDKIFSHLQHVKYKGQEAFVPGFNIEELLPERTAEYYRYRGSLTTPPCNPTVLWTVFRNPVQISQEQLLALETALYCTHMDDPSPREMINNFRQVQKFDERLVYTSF
T2 sequence (Q9Y2D0 37-296 limits assumed): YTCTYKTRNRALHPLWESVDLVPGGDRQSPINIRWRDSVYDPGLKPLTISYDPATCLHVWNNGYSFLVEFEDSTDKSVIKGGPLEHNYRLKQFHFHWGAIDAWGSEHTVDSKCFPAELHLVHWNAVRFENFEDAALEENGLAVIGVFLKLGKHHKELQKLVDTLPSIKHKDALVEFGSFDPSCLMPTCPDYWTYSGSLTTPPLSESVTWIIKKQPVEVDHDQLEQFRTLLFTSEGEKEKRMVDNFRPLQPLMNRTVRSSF
T8 sequence (Q9ULX7 20-278 limits assumed): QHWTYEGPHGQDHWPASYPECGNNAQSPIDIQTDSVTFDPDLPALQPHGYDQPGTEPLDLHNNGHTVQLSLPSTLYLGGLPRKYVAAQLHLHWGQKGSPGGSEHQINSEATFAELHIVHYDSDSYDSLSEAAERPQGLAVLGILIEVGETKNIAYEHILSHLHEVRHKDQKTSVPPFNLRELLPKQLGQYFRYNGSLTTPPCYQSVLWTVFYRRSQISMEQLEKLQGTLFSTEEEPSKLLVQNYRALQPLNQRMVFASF
T9 sequence (P43166 5-262 limits assumed): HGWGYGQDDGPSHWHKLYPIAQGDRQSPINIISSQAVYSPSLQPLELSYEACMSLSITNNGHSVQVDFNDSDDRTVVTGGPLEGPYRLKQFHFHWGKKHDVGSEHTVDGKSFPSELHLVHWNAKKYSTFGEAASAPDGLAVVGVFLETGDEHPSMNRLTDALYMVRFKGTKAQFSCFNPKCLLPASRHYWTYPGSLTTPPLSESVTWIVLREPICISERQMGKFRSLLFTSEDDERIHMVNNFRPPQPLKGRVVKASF
T10 sequence (P07451 3-259 limits assumed): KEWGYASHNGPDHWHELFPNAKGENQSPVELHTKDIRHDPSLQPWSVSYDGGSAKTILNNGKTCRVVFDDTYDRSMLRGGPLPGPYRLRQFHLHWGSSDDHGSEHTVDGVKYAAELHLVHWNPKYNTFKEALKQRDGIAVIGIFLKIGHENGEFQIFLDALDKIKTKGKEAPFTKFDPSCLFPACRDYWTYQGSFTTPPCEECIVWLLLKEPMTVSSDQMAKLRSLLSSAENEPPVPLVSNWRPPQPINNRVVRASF
T12 sequence (P00915 4-261 limits assumed): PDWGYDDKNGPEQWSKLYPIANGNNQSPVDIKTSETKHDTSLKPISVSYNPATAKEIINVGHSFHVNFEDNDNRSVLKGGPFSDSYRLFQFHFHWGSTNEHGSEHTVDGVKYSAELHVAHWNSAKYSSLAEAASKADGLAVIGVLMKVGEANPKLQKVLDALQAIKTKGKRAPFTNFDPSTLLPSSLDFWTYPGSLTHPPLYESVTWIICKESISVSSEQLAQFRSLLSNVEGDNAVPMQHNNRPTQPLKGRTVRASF
T6 sequence (P35218 39-296 limits assumed): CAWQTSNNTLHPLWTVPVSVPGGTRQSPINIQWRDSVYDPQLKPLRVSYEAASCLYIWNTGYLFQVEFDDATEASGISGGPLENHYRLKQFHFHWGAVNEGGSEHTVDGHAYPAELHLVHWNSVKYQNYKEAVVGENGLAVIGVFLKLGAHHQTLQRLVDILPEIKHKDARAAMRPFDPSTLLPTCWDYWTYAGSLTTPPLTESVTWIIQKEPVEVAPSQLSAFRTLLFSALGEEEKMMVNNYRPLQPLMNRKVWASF
T11 sequence (P23280 21-278 limits assumed): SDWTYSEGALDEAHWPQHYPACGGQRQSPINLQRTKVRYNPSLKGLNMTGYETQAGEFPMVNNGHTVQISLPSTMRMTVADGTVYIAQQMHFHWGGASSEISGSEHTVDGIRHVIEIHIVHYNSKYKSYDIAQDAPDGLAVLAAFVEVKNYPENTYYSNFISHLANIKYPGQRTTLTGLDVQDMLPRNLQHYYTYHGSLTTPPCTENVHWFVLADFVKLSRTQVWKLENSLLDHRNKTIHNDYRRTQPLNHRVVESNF

| Kd (human recombinant CA IV) [nM] | Kd (human recombinant CA VB) [nM] | Kd (human recombinant CA II) [nM] | Kd [1] [nM] | Kd (human recombinant CA IX) [nM] | Kd (human recombinant CA VA) [nM] | Kd (human recombinant CA XII) [nM] | Kd (human recombinant CA XIV) [nM] | Kd (human recombinant CA VII) [nM] | Kd (human recombinant CA III) [nM] | Kd (human recombinant CA VI) [nM] | Kd (human recombinant CA I) [nM] | IC50 (carbonic anhydrase IX; 50 nM enzyme CA IX, compound titrates the enzyme, read-out: Compound concentration at 50% remaining activity of CA IX) [nM] | Kd (carbonic anhydrase IX; read-out: Real affinity for CA IX as bounded by enzymatic inhibition) [nM] | Structure (SMILES) | Inhibition of acidification at 1 μM (HeLa cancer cell culture) |
| --- | --- | --- | --- | --- | --- | --- | --- | --- | --- | --- | --- | --- | --- | --- | --- |
| 1000 | 83 | 450 | 50 | 0.1 | 7100 | 50 | 27 | 150 | ≥ 200000 | 980 | 10000 | – | – | NS(=O)(=O)c1c(F)c(F)c(S(=O)(=O)CCNC(=O)CCOCCOCCOCCOCCOCCOCCOCCOCCOCCOCCOCCOCCNC(=O)CCCCC2SCC3NC(=O)NC32)c(NC2CCCCCCC2)c1F (centres unmarked) [AZ19-1, N-[2-[2-[2-[2-[2-[2-[2-[2-[2-[2-[2-[2-[3-[2-[2-(cyclooctylamino)-3,5,6-trifluoro-4-sulfamoyl-phenyl]sulfonylmethylamine]-3-oxo-propoxy]ethoxy]ethoxy]ethoxy]ethoxy]ethoxy]ethoxy]ethoxy]ethoxy]ethoxy]ethoxy]ethoxy]ethyl]-5-(2-oxo-1,3,3a,4,6,6a-hexahydrothieno[3,4-d]imidazol-4-yl)pentanamide] | – |
| 1000 | 70 | 250 | 20 | 0.05 | 10000 | 20 | 10 | 50 | ≥ 200000 | 500 | 10000 | – | – | NS(=O)(=O)c1c(F)c(F)c(S(=O)(=O)CCNC(=O)CCOCCOCCOCCOCCOCCOCCOCCOCCOCCOCCOCCOCCOCCC(=O)O)c(NC2CCCCCCC2)c1F [AZ19-3-1, 3-[2-[2-[2-[2-[2-[2-[2-[2-[2-[2-[2-[2-[3-[2-[2-(cyclooctylamino)-3,5,6-trifluoro-4-sulfamoyl-phenyl]sulfonylethylamino]-3-oxo-propoxy]ethoxy]ethoxy]ethoxy]ethoxy]ethoxy]ethoxy]ethoxy]ethoxy]ethoxy]ethoxy]ethoxy]ethoxy]propanoic acid] | – |
| 250 | 70 | 100 | 2 | 0.015 | 3000 | 20 | 8.3 | 330 | ≥ 200000 | – | 3300 | ~10 | < 10 | NS(=O)(=O)c1c(F)c(F)c(S(=O)(=O)CCNC(=O)CCOCCOCCOCCOCCOCCOCCOCCOCCOCCOCCOCCOCCOCCC(=O)NCCS(=O)(=O)c2c(F)c(F)c(S(N)(=O)=O)c(F)c2NC2CCCCCCC2)c(NC2CCCCCCC2)c1F [AZ19-3-2, N-[2-[2-(cyclooctylamino)-3,5,6-trifluoro-4-sulfamoyl-phenyl]sulfonylethyl]-3-[2-[2-[2-[2-[2-[2-[2-[2-[2-[2-[2-[2-[3-[2-[2-(cyclooctylamino)-3,5,6-trifluoro-4-sulfamoyl-phenyl]sulfonylethylamino]-3-oxo-propoxy]ethoxy]ethoxy]ethoxy]ethoxy]ethoxy]ethoxy]ethoxy]ethoxy]ethoxy]ethoxy]ethoxy]ethoxy]propanamide] | mostly inhibited |
